# According to publication PMC11151858 (RSC Chemical Biology, 2024):
# Tested on: wild-type progesterone receptor (pSG5-Gal4-DBD-PR) and its mutants
# Assay type: cell-based
# Settings: not given
row,Compound,activity in PR mutants as compared to wild-type PR
1,"CC(=O)[C@H]1CC[C@H]2[C@@H]3CCC4=CC(=O)CC[C@]4(C)[C@H]3CC[C@]12C [STR, Progesterone]",lowered in all mutants
2,"C[C@@H]1C[C@H]2[C@@H]3CCC4=CC(=O)C=C[C@]4(C)[C@@]3(F)[C@@H](O)C[C@]2(C)[C@@]1(O)C(=O)CO [DEX, Dexamethasone]",lowered below DMSO control by most mutations

# Same assay, conditions: HeLa, Gal4-DBD-PR LBD mutants; ligand 10 μM
row,Compound,"activity in PR mutants as compared to wild-type PR, high ligand concentration"
1,"C[C@]12CCC(=O)C=C1CC[C@@H]1[C@@H]2[C@@H](O)C[C@@]2(C)[C@H]1CC[C@]2(O)C(=O)CO [HCY, Cortisol]",reduced activity
2,"C[C@]12C=CC(=O)C=C1CC[C@@H]1[C@@H]2C(=O)C[C@@]2(C)[C@H]1CC[C@]2(O)C(=O)CO [PDN, Prednisone]",additional reduction
3,"C[C@]12CCC(=O)C[C@@H]1CC[C@@H]1[C@@H]2CC[C@]2(C)[C@@H](O)CC[C@@H]12 [DHT, Dihydrotestosterone]",reduced activity
4,"C[C@]12CCC(=O)C=C1CC[C@@H]1[C@@H]2[C@@H](O)C[C@]2(C=O)[C@@H](C(=O)CO)CC[C@@H]12 [AS4, Aldosterone]",reduced activity
